{"source": "patent US12569503B2", "about": "“Methods and compositions for substituted axially-chiral cannabinol analogs” (University of Florida Research Foundation, Inc., priority 2019, dated 2026)", "key": {"mice [1]": {"test_system": "mice", "experiment": "Locomotion measured as ambulatory time (modified tetrad assay)", "type": "in vivo", "settings": "for Locomotion (in words): modified tetrad assay, THC 10-56 mg/kg, ax-CBN 56-320 mg/kg"}, "mice [2]": {"test_system": "mice", "experiment": "Acute thermal antinociception (tail-flick, modified tetrad assay)", "type": "in vivo", "settings": "THC 10-56 mg/kg, ax-CBN 56-320 mg/kg"}, "C57bl/6j mice": {"test_system": "C57bl/6j mice", "experiment": "Reduction of body temperature (hypothermia)", "settings": "for Effect on body temperature (in words): mice, THC 10-56 mg/kg, ax-CBN 56-320 mg/kg"}, "cannabinoid receptors": {"molecular_target": "cannabinoid receptors", "settings": "in a variety of studies, cited from earlier work"}, "[3]": {"experiment": "Locomotion measured as ambulatory time (modified tetrad assay)", "type": "in vivo, mice", "settings": "C57bl/6j, mouse, in vivo; Table 4; read-out: Hypolocomotion ED50 ((95% CL)"}, "[4]": {"experiment": "Reduction of body temperature (hypothermia)", "settings": "C57bl/6j, mouse, in vivo, Body Temp. ED50 ((95% CL) mg/kg), Table 4; hypothermia"}, "[5]": {"test_system": "mice trained to discriminate 10 mg/kg THC", "settings": "rimonabant 0.32 and 1 mg/kg versus vehicle; cited from earlier work"}}, "note": "Entries after “also recorded” stand apart in the source; their conditions may differ."}
{"compound": "10-methyl-CBN [ax-CBN]", "values": [{"measurement": "Hypolocomotion ED50 ((95% CL)", "setting": "mice [1]; Table 4", "value": 290.20, "unit": "mg/kg"}, {"measurement": "Locomotion (in words)", "setting": "mice [1]", "value": "decreased locomotion"}, {"measurement": "Acute thermal antinociception (in words)", "setting": "mice [2]", "value": "dose-relatedly produced thermal antinociception"}, {"measurement": "Body Temp. ED50 ((95% CL)", "setting": "C57bl/6j mice; Table 4, hypothermia", "value": 308.98, "unit": "mg/kg"}, {"measurement": "Effect on body temperature (in words)", "setting": "C57bl/6j mice", "value": "hypothermia"}]}
{"compound": "CCCCCc1cc(O)c2c(c1)OC(C)(C)c1ccc(C)cc1-2", "note": "[CBN, cannabinol]", "values": [{"measurement": "Binding affinity for cannabinoid receptors", "setting": "cannabinoid receptors", "value": "significantly higher"}]}
{"compound": "CCCCCc1cc(O)c2c(c1)OC(C)(C)[C@@H]1CCC(C)=C[C@@H]21", "note": "[THC, (−)-trans-Δ^9-tetrahydrocannabinol]", "values": [{"measurement": "ED50", "setting": "[3]", "value": 25.5, "unit": "mg/kg"}, {"measurement": "Locomotion (in words)", "setting": "mice [1]", "value": "decreased locomotion"}, {"measurement": "Acute thermal antinociception (in words)", "setting": "mice [2]", "value": "dose-relatedly produced thermal antinociception"}, {"measurement": "Ki", "setting": "cannabinoid receptors; read-out: Binding affinity for cannabinoid receptors", "value": "20 to 40", "unit": "nM"}, {"measurement": "ED50", "setting": "[4]", "value": 17.5, "unit": "mg/kg"}, {"measurement": "Effect on body temperature (in words)", "setting": "C57bl/6j mice", "value": "robust depression of body temperature; also recorded: hypothermia"}]}
{"compound": "Cc1c(C(=O)NN2CCCCC2)nn(-c2ccc(Cl)cc2Cl)c1-c1ccc(Cl)cc1", "note": "[rimonabant]", "values": [{"measurement": "Effect on THC dose effect in drug discrimination (in words)", "setting": "[5]", "value": "antagonizes the dose effect of THC"}]}
